Data reported in PMC4865297, “Macromolecular Crystallography and Structural Biology Databases at NIST” (Journal of Research of the National Institute of Standards …, 2001).

Columns and labels:
[1] = target: T1, catabolite gene activator protein (CAP) (Escherichia coli, UniProt P0ACJ8, A145T); assay: X-ray crystal structure, soak; assay type: binding; conditions: crystals grown with cAMP soaked in 10 mM adenosine; bound in one subunit; text also prints the variant as Thr144Ala
T1 construct: gene crp; homodimer
T1 sequence (P0ACJ8 2-210 A145T): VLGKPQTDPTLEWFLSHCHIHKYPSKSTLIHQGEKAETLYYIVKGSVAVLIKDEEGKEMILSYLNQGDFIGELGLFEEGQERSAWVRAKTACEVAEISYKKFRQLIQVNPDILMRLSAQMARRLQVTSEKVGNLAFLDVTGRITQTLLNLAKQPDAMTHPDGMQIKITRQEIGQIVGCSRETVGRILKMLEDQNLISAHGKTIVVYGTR

chorismate lyase = target: T2, chorismate lyase (Escherichia coli, UniProt P26602, C15S/C82S); assay: X-ray crystal structure; assay type: binding; conditions: both cysteines changed to serine; product complex
T2 construct: gene ubiC; monomer, 164 residues
T2 sequence (P26602 2-165 C15S/C82S): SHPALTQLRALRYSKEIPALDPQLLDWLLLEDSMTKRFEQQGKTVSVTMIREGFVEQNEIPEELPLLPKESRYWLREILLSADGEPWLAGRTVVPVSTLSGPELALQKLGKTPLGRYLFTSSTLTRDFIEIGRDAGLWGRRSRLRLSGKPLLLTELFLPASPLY

Compound | X-ray crystal structure, soak [1] | X-ray crystal structure (chorismate lyase)
Nc1ncnc2c1ncn2[C@@H]1O[C@H](CO)[C@@H](O)[C@H]1O [adenosine] | Adenosine was preferentially substituted for cAMP in only one of the two CAP subunits | –
O=C(O)c1ccc(O)cc1 [4-hydroxy benzoate] | – | the active double Cys-to-Ser variant complexed with product were determined
